Assay [1] deals with Treg suppressive function. Put plainly: In vitro suppression assay (Tregs co-cultured with CD4+CD25- T cells at 1:3). The format is cell-based, human. To be noted: pre-treatment of Treg at 1 μM for 30 minutes, supernatants after 48 hours. The procedure:
In Vitro Suppression Assays—CD4^+CD25^+ T cells were treated or not, washed, and added at a ratio of 1:3 ([…]) to CD4^+CD25^− T cells at final concentration of 2×10^6 per mL (cytokine secretion) or 2×10^5 per mL (proliferation). The cells were co-cultured on anti-CD3 mAb (5 μg/mL) pre-coated 24-well plates for 24-48 hours (cytokine secretion) or 96 hours (proliferation). Human TNF-α (210-TA) was purchased from R&D Systems and added to co-cultures where indicated. […] Cytokine secretion was determined by ELISA as described (Zanin-Zhorov et al., “Protein Kinase C-Theta Mediates Negative Feedback on Regulatory T Cell Function,” Science 328:372-376 (2010), which is hereby incorporated by reference in its entirety), using human IFN-γ Cytoset (Biosource) and IL-17 and -4 (Invitrogen). Proliferation was assessed by carboxyfluorescein diacetate succinimidyl ester (CFSE) dilution as described (Tran et al., “Analysis of Adhesion Molecules, Target Cells, and Role of IL-2 in Human FOXP3+ Regulatory T Cell Suppressor Function,” J. Immunol. 182:2929-2938 (2009), which is hereby incorporated by reference in its entirety).

Assay [2] relates to Treg suppressive function. Particulars: literature (Valencia et al.; Zanin-Zhorov et al.); cited from earlier work.
For assay [3], the system named is Dlgh1 recruitment to the IS in Tregs. The experiment in a line: Dlgh1 recruitment to the immunological synapse on planar lipid bilayers, imaged by TIRFM. The format is cell-based, human. To be noted: Tregs from healthy donors, 50 ng/mL overnight. The procedure:
Planar lipid bilayers containing anti-CD3 antibodies (5 μg/mL) and ICAM-1 (250 molecules per mm^2) were prepared in parallel-plate flow cells as described (Zanin-Zhorov et al., “Protein Kinase C-Theta Mediates Negative Feedback on Regulatory T Cell Function,” Science 328:372-376 (2010), which is hereby incorporated by reference in its entirety). The flow cell containing the bilayers was warmed up to 37° C.; cells were injected in 500 μL of Hepes-buffered saline containing 1% human serum albumin; and images were collected on a custom automated Nikon inverted fluorescence microscope.
All TIRF imaging was performed on the custom automated Nikon inverted fluorescence microscope using the 100×/1.45 N.A. TIRF objective from Nikon. […]
The pro-inflammatory mediator TNF-α inhibits suppressive activity and down-regulates Foxp3 in human Treg (Valencia et al., “TNF Downmodulates the Function of Human CD4+CD25hi T-Regulatory Cells,” Blood 108(1):253-261 (2006); Zanin-Zhorov et al., “Protein Kinase C-Theta Mediates Negative Feedback on Regulatory T Cell Function,” Science 328(5976):372-376 (2010), both of which are hereby incorporated by reference in their entirety). To investigate whether Dlgh1 recruitment to IS correlates with suppressive function of Treg, Treg was incubated with TNF-α overnight and then analyzed Dlgh1 recruitment to the IS as described above. […]

The subject of the next assay is Foxp3. To be noted: literature (Valencia et al.; Zanin-Zhorov et al.); cited from earlier work.

With `C[S+]([O-])c1ccc(-c2nc(-c3ccncc3)c(-c3ccc(F)cc3)[nH]2)cc1` (stereo not shown) [SB203580], the “ability of Treg to suppress IFN-γ secretion from CD4+CD25- T cells” value in assay [1] is “significantly down-regulated”.

In the case of TNF-α, the “suppressive activity of human Treg” value in assay [2] is reported as “inhibits”. In addition, the “levels of Dlgh1 at IS in Tregs” value in assay [3] is “significantly reduced”. Also, the “Foxp3 in human Treg” value in the assay on Foxp3 is listed as “down-regulates”.

Values taken from patent US20140350078A1, “CONTROLLING REGULATORY T CELL FUNCTION” (NEW YORK UNIVERSITY, priority 2011, published 2014).
